Measurements published in patent US20260335274A1, “COMPOSITIONS AND METHODS OF MINIMIZING LONG COVID” (priority 2022, published 2026).

Legend:
OC43 human coronavirus [1] = assay: Direct contact (contact inhibition) antiviral test, TCID50; details: Betacoronavirus 1, OC43, MRC5, in Homo sapiens, 0.5 h, read-out: reduction of OC43 infectivity
OC43 human coronavirus [2] = assay: Post-infection test, MRC-5 cells, TCID50; format: cell-based, human coronavirus OC43 (MRC-5 human cells as host); details: 10 min exposure; for inhibition at 50 µM: read-out: titer reduction, post-infection
Protocol: Then, 100 μl of either EC16 formulations or Remdesivir solutions of various concentrations were applied onto the cells for 10 min before being replaced by serum-free EMEM. The TCID50 values were determined after incubation for 4-7 days.

[3] = Cytotoxicity of F18m in normal saline, MTT assay; format: cell-based; details: human, hnepc; EC16m in saline formulation, 60 min exposure; read-out: concentration not toxic to HNEpC
Protocol: The F18m glycerol stock was diluted 10× with normal saline to 1.4 mM of EC16m. A series dilution of this nanoformulation in Airway Growth Medium was applied to a monolayer of Human […] Primary Epithelial Cells (HNPEC, PromoCell) and incubated for 1 h before medium change and overnight incubation, followed by straining with an MTT assay.

OC43 human coronavirus [4] = assay: Pre-infection test, MRC-5 cells, TCID50; format: cell-based, human coronavirus OC43 (MRC-5 human cells as host); details: MRC5, 10 min; 50 μM EC16m, 10 min incubation before virus; read-out: reduction in viral infectivity, pre-infection
Protocol: EC16m nasal formulations were incubated with MRC-5 cells in 96 well plates for 10 min, and then removed. A series dilution of OC43 in serum-free EMEM was added to the cells and incubated for 1 h. The viral dilutions were then replaced with serum-free EMEM, and TCID50 infection rate was determined after 4-7 days of incubation.

[5] = in vivo, cited from earlier work
SARS-CoV-2 = details: one-hour incubation; cited from earlier work

CCCCCCCCCCCCCCCC(=O)Oc1c(O)cc(C2Oc3cc(O)cc(O)c3CC2OC(=O)c2cc(O)c(O)c(O)c2)cc1O (centres unmarked) [EC16m, Epigallocatechin-3-Gallate-mono-palmitate]
inhibition at 50 µM (OC43 human coronavirus [1]): 99.9%
inhibition of viral replication, post-infection (OC43 human coronavirus [2]; 12.5 μM EC16m): 99%
inhibition at 12.5 µM (OC43 human coronavirus [2]; MRC5, 10 min, 12.5 μM EC16m, read-out: inhibition of viral replication, post-infection): > 99%
inhibition at 50 µM (OC43 human coronavirus [2]; MRC5, 10 min, 50 μM): 99.8%
MNTC at 1 h [3]: < 280 µM
inhibition at 50 µM (OC43 human coronavirus [4]): 98.5%

O=C(O[C@@H]1Cc2c(O)cc(O)cc2O[C@@H]1c1cc(O)c(O)c(O)c1)c1cc(O)c(O)c(O)c1 [EGCG, epigallocatechin-3-gallate]
bioavailability [5]: very low
Cmax ([5]; read-out: serum maximum concentration): 570 nM
EC90 (SARS-CoV-2): 69 µM

CCC(CC)COC(=O)[C@H](C)N[P@](=O)(OC[C@H]1O[C@@](C#N)(c2ccc3c(N)ncnn23)[C@H](O)[C@@H]1O)Oc1ccccc1 [remdesivir, reference compound]
inhibition at 50 µM (OC43 human coronavirus [2]; MRC5, 10 min, 50 μM): 99.8%
log reduction at 50 µM (OC43 human coronavirus [2]; MRC5, 10 min, 50 μM, n=4, read-out: log10 titer reduction, post-infection): 2.69 ± 0.24
